Where two headings read alike, the source gives them in different places.
Columns and labels:
[1] = tested on: GNF449-R2 (PfATP4 I203L and P990R, parent Dd2); assay: Cross-resistance EC50 assay, GNF449-R2; format: cell-based; conditions: Plasmodium falciparum, SYBR green 72 hour assay, asynchronized parasites, 96-well or 1536-well format
Excerpt: (§1) To evaluate potential overlapping activity against known antimalarial drug targets, we performed dose-response studies with each compound against our assembled set of drug-resistant lines and their corresponding parents, in an asexual blood stage proliferation assay (Table 1). Comparisons were made to the drug-sensitive strain 3D7 when a parent was unavailable (TM90C2A, W2 and Dd2). As laboratories conducted EC50 assays with different strains and protocols, all comparisons were made between assays from the same laboratory and under the same assay conditions. Compounds displaying >5-fold EC50 shifts relative to the parent or sensitive strain were flagged as having potentially non-novel targets. Average fold shifts per strain ranged from 0.82 to 2.34, with a median of 1.23 indicating there was not common resistance to any one resistant clone. No resistance patterns were observed when classifying the compounds based on chemical structure, but this was not surprising given the diversity of compounds chosen. On the other hand, given that these confirmed compounds were derived from larger unconfirmed hit lists to which some filtration criteria may have been applied (for example, elimination of obvious dihydrofolate reductase inhibitors[32]), some[10][11][12][13] pre-existing bias may exist in the set. […]
(§2) Alternatively, a SYBR Green-based proliferation approach was used for the 72-h assay, as previously described. Briefly, a culture of either synchronized or asynchronous parasitized RBCs (0.3% parasitemia and 4% haematocrit) in screening medium (identical to supplemented medium above except no serum was added) was exposed to serial drug dilutions. Plates were incubated at 37 °C and gassed with 93% N2, 4% CO2 and 3% O2 for 72 h. Following incubation, 10 × SYBR Green I (Invitrogen; supplied in 10,000 × concentration) in lysis buffer ([…], 5 mM EDTA, 0.16% Saponin wt per vol and 1.6% Triton X vol per vol) was added to the wells and the plates were incubated overnight at room temperature before plate reading. EC50 assays were repeated three times, taking the average EC50 value from each assay set, and removing any outliers using a single iteration of Grubbs' test, eliminating values with z-scores above the critical z-value (α=0.05). The raw EC50 values for synchronized parasites assayed in a 384-well format are listed in Supplementary Data 4. The raw EC50 values for asynchronous parasites assayed in a 96 or 1536-well format are listed in Supplementary Data 5.
(§3) EC50 values for each strain were compared with those of the corresponding parent strain to determine fold-shift changes and identify resistance. To minimize the cause variance between assays, all comparisons were conducted between strains assayed under identical conditions. A one-way ANOVA followed by a Dunnet's post-test was conducted in GraphPad Prism to identify significant changes between the parent and resistant strain.

[2] = tested on: P. falciparum 3D7, Dd2, Dd2Δexo; assay: In vitro evolution of compound-resistant lines (selection); format: cell-based, Plasmodium falciparum; conditions: for Time Length to Obtain Mutants: in vitro selection; for # of Resistant Strains Generated: resistant cultures out of three independent cultures; for EC50 fold shifts observed: selected parasites vs selection parent
Excerpt: While we found an overall lack of pre-existing resistance, analysing the onset of resistance was critical, as compounds resulting in rapid resistance are not ideal for clinical development. We therefore sought to create drug-resistant parasites using a variety of different selection methods. We implemented either a high-dose method or a ramp-up/pulse method for our in vitro selections. Two of the 50 compounds—MMV028895 and MMV665824—were removed from the selection study during experimentation. […] Out of the remaining 48 compounds, resistant parasites were obtained for 23 (Supplementary Data 1). As each selection was performed in triplicate with three independent cultures, we succeeded in generating a total of 66 resistant cultures. Parasites resistant to MMV026596 were not obtained despite 100 days of selection, but the cultures acquired hypersensitivity to mefloquine with a 10-fold reduction in EC50 compared with its parental line, 3D7. For the remaining 24 compounds, acquisition of resistant parasites was unsuccessful despite numerous attempts over an extensive period of time.
Based on the compound speed of action and lab specialty, selections were conducted using a high-pressure intermittent selection method, a step-wise selection method, or a constant selection method. For high-pressure selections, ∼1–2 × 10^9 parasites were treated at a concentration of 3–10 × EC50 until parasites could not be seen by microscopy (4–10 days). Following treatment, compound pressure was removed and cultures were allowed to recover. Once healthy parasites were seen and parasitemia reached ∼2%, compound pressure was reinstated. For step-wise selections, ∼1 × 10^8 parasites were treated at a starting concentration resulting in a reduced growth rate of 50%. Cultures were examined daily by microscopy, increasing compound concentration in increments of 5–10% as needed to maintain a 50% reduced growth rate. Selections were carried out until cultures achieved a reproducible EC50 fold shift of >3 × . Finally, constant selections were conducted in a similar manner to the high-pressure intermittent method with the exception that compound pressure was never removed. Following successful selection, cultures were cloned out using a limiting dilution method as previously described. Selections were terminated after 200 days if resistance could not be obtained.

[3] = tested on: DHODH (E182D, parent 3D7); assay: Cross-resistance EC50 assay, DHODH; format: cell-based; conditions: Plasmodium falciparum; SYBR green 72 hour assay; synchronized parasites; 384-well format; strain DHODH (3D7 parent)
Excerpt: as §1, §2, §3

[4] = tested on: P. berghei exoerythrocytic forms; assay: Liver-stage P. berghei hepatocyte invasion and development assay (luminescence, HepG2); format: cell-based, Plasmodium berghei; conditions: for EC50: HepG2, 48 h, read-out: Liver Stage EC50; for EC50 fold shift compared to asexual stage: Liver Stage EC50: liver stage EC50 / 3D7 EC50
How it was run: (§4)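 HepG2 cells were pretreated with compound for 2 h, then infected with fresh P. berghei sporozoites. After 48 h, exoerythrocytic-form viability was read by BrightGlo luminescence; hepatocyte toxicity was tested in parallel. EC50s came from 12-point curves run in duplicate, starting at 5 μM or 50 μM.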

[5] = tested on: ATQ-R4 (cytb M133I and L144S, parent 3D7); assay: Cross-resistance EC50 assay, ATQ-R4; format: cell-based, Plasmodium falciparum; conditions: for EC50: Plasmodium falciparum, 3D7, SYBR green 72 hour assay, asynchronized parasites, 96-well or 1536-well format, ATQ-R4
Excerpt: as §1, §2, §3

hsp90 (D88Y, parent Dd2) = assay: Cross-resistance EC50 assay, hsp90; format: cell-based; conditions: Plasmodium falciparum; SYBR green 72 hour assay; synchronized parasites; 384-well format; strain HSP90 (Dd2 parent)
Excerpt: as §1, §2, §3

HepG2 = assay: Hepatocyte toxicity; format: cell-based, human; conditions: for Hepatocyte Toxicity: HepG2; for EC50 fold shift compared to asexual stage: Hepatocyte Toxicity: hepatocyte toxicity / 3D7 EC50; for Liver Stage / Hepatocyte Toxicity: toxicity fold shift for the liver stage (hepatocyte toxicity vs liver stage EC50)
How it was run: as §4

[6] = Plasmodium berghei, P. berghei sporozoites

| Structure (SMILES) | EC50 [1] [µM] | Time Length to Obtain Mutants [2] | # of Resistant Strains Generated [2] | EC50 fold shifts observed [2] | EC50 [3] [nM] | EC50 [4, 6] [nM] | EC50 fold shift compared to asexual stage: Liver Stage EC50 [4] | EC50 [5] [µM] | EC50 (hsp90 (D88Y, parent Dd2)) [nM] | Hepatocyte Toxicity (HepG2) [µM] | EC50 fold shift compared to asexual stage: Hepatocyte Toxicity (HepG2) | EC50 ([4]; P. berghei sporozoites) [nM] | EC50 fold-shift, ATQ-R4 vs parent ([5]; resistance, parent 3D7) [×] | Liver Stage / Hepatocyte Toxicity (HepG2) | EC50 ([4]; Plasmodium berghei) [nM] |
| --- | --- | --- | --- | --- | --- | --- | --- | --- | --- | --- | --- | --- | --- | --- | --- |
| Nc1ccc(-c2nc3cc(Oc4ccc(Oc5ccc6[nH]c(-c7ccc(N)cc7)nc6c5)cc4)ccc3[nH]2)cc1 [MMV011895] | 0.644 | LONG (> 125 days) | 2/3 | 2-4x | 168 | > 50000 | > 300 | 0.545 | 311 | > 50 | > 300 | – | – | – | – |
| COCCNCC(O)Cn1c2ccc(Cl)cc2c2cc(Cl)ccc21 (stereo not shown) [MMV019017] | 0.636 | LONG (> 125 days) | 0/3 | no shift | 1040 | > 5000 | > 10 | 1.24 | 614 | > 5 | > 10 | – | – | – | – |
| COc1ccccc1CNC(=O)CCn1c(=O)[nH]c2ccsc2c1=O [MMV019066] | 0.008 | SHORT (0-50 days) | 3/3 | >15x | 53 | 318 | 0.19 | 0.057 | 15 | > 5 | > 3 | 310 | 16 | > 15 | – |
| Cl.c1ccc2c(NCCCCCCNc3c4c(nc5ccccc35)CCCC4)c3c(nc2c1)CCCC3 [MMV019555] | 0.262 | LONG (> 125 days) | 0/3 | no shift | 56 | – | – | 0.08 | 198 | 4.811 | – | – | – | 15.06 | 319 |
| COc1ccc(N2CCN(C(CNC(=O)C3CCCCC3)c3ccc4c(c3)OCO4)CC2)cc1 (stereo not shown) [MMV019662] | 0.452 | MODERATE (50-125 days) | 3/3 | 15x | 860 | 18900 | 55.47 | 0.716 | 790 | > 50 | > 147 | – | – | > 2.65 | – |
| COc1ccc(-c2nc(NC(=O)Cc3ccc4c(c3)OCCO4)sc2C)cc1 [MMV019719] | 0.405 | MODERATE (50-125 days) | 3/3 | 3x | 180 | 10500 | 63.78 | 0.203 | 281 | 20.33 | 123.96 | – | – | 1.94 | – |
| Cc1ccc(Oc2ncccc2C(=O)Cc2cccc3cccnc23)c(C)c1 [MMV020746] | 2.63 | SHORT (0-50 days) | 3/3 | 6-19x | 122 | 12100 | 159.34 | 1.97 | 200 | 31.56 | 415.26 | – | – | 2.61 | – |
| COc1cc(-c2nc(-c3ccccc3)c(-c3ccccc3)[nH]2)cc(OC)c1O [MMV020750] | 1.47 | LONG (> 125 days) | 0/3 | no shift | 509 | > 5000 | 23.86 | 0.912 | 700 | > 5 | > 15 | – | – | > 1 | – |

— article PMC4912613, “A broad analysis of resistance development in the malaria parasite” (Nature Communications, 2016)
